Reference: US10759783B2, “Biaryl inhibitors of Bruton'S tyrosine kinase” (BIOGEN MA INC., priority 2013, dated 2020)

Each molecule was assayed against T1, BTK enzyme (Homo sapiens, UniProt Q06187) (assay: In vitro BTK kinase assay: BTK-POLYGAT-LS assay). Details: ATP 10 μM, read-out: IC50 (10uMATP).
T1 construct: purchased Upstate 14-552
Type: biochemical
Method: The purpose of the BTK in vitro assay is to determine compound potency against BTK through the measurement of IC50. […] For a typical assay, a 24 μL aliquot of a ATP/peptide master mix (final concentration; ATP 10 μM, polyGAT 100 nM) in kinase buffer (10 mM Tris-HCl pH 7.5, 10 mM MgCl2, 200 μM Na3PO4, 5 mM DTT, 0.01% Triton X-100, and 0.2 mg/ml casein) is added to each well. […] The assay is incubated for 30 minutes before being stopped with 28 μL of a 50 mM EDTA solution. […] The plate is covered and incubated for 45 minutes at room temperature.

T1 sequence (Q06187 whole entry): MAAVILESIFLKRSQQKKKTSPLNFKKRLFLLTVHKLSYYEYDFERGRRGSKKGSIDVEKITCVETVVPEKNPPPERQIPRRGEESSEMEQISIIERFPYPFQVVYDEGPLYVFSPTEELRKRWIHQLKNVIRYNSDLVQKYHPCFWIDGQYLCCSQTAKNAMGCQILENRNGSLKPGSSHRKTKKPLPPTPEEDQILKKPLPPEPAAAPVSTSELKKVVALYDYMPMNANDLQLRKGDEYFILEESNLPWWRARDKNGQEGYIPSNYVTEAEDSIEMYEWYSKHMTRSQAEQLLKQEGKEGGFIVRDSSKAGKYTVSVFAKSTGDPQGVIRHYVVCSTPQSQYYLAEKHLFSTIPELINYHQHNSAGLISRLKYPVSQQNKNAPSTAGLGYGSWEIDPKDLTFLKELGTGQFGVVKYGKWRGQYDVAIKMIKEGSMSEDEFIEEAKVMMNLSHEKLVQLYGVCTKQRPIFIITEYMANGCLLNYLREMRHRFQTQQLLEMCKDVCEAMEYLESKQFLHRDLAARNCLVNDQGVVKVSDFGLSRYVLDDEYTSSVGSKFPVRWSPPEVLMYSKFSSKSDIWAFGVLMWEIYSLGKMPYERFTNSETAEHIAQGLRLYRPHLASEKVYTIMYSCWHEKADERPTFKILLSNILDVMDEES

Q: For `Cc1cc(-c2ccnc(Nc3cnn(C)c3)n2)ccc1CNC(=O)c1ccc(Cl)c(Cl)c1` [Example I-8, 3,4-dichloro-N-(2-methyl-4-(2-((1-methyl-1H-pyrazol-4-yl)amino)pyrimidin-4-yl)benzyl)benzamide], which IC50 is on record?
A: The IC50 was under 0.01 µM.

Q: With `Cc1cc(-c2ccnc(Nc3cnn(C)c3)n2)ccc1CNC(=O)[C@H]1CC[C@H](C(F)(F)F)CC1` [Example I-11, trans-N-(2-methyl-4-(2-((1-methyl-1H-pyrazol-4-yl)amino)pyrimidin-4-yl)benzyl)-4-(trifluoromethyl)cyclohexanecarboxamide] as the molecule, how does the IC50 read?
A: The IC50 was 0.01 to 0.099 µM.

Q: Which IC50 does the source give for `Cc1cc(-c2ccnc(Nc3cnn(C)c3)n2)ccc1CNC(=O)c1cc2c(s1)CCNC2C` (stereo not drawn) [Example I-14, 4-methyl-N-(2-methyl-4-(2-((1-methyl-1H-pyrazol-4-yl)amino)pyrimidin-4-yl)benzyl)-4,5,6,7-tetrahydrothieno[3,2-c]pyridine-2-carboxamide] here?
A: Its IC50 is 0.01 to 0.099 µM.

Q: `Cc1cc(-c2ccnc(Nc3cnn(C)c3)n2)ccc1CNC(=O)C1CCN(C)CC1` [Example I-16, 1-methyl-N-(2-methyl-4-(2-((1-methyl-1H-pyrazol-4-yl)amino)pyrimidin-4-yl)benzyl)piperidine-4-carboxamide] was tested. Which IC50 did it give?
A: The IC50 was over 10 µM.

Q: Which IC50 does the source give for `Cc1cc(-c2ccnc(Nc3cnn(C)c3)n2)ccc1CNC(=O)[C@H]1CC[C@@H](C(F)(F)F)CC1` [Example I-17, cis-N-(2-methyl-4-(2-((1-methyl-1H-pyrazol-4-yl)amino)pyrimidin-4-yl)benzyl)-4-(trifluoromethyl)cyclohexanecarboxamide] here?
A: The IC50 was 0.1 to 0.999 µM.

Q: With `Cc1cc(-c2ccnc(Nc3cnn(C)c3)n2)ccc1CNC(=O)c1cnoc1C` [Example I-18, 5-methyl-N-(2-methyl-4-(2-((1-methyl-1H-pyrazol-4-yl)amino)pyrimidin-4-yl)benzyl)isoxazole-4-carboxamide] as the molecule, how does the IC50 read?
A: The IC50 was 0.1 to 0.999 µM.

Q: How did the IC50 turn out when `Cc1cc(-c2ccnc(Nc3cnn(C)c3)n2)ccc1CNC(=O)NC12CCC(CC1)CC2` [Example I-22, 1-(bicyclo[2.2.2]octan-1-yl)-3-(2-methyl-4-(2-((1-methyl-1H-pyrazol-4-yl)amino)pyrimidin-4-yl)benzyl)urea] was run?
A: Its IC50 is 0.01 to 0.099 µM.

Q: For `Cc1cc(-c2ccnc(NC3CCN(C)CC3)n2)ccc1CNC(=O)c1cnc(C(C)(C)C)s1` [Example I-25, 2-(tert-butyl)-N-(2-methyl-4-(2-((1-methylpiperidin-4-yl)amino)pyrimidin-4-yl)benzyl)thiazole-5-carboxamide], which IC50 is on record?
A: The IC50 was 1 to 10 µM.

Q: How did the IC50 turn out when `Cc1cc(-c2ccnc(NC3CCOCC3)n2)ccc1CNC(=O)c1cnc(C(C)(C)C)s1` [Example I-26, 2-(tert-butyl)-N-(2-methyl-4-(2-((tetrahydro-2H-pyran-4-yl)amino)pyrimidin-4-yl)benzyl)thiazole-5-carboxamide] was run?
A: The IC50 was 1 to 10 µM.

Q: How did the IC50 turn out when `Cc1cc(-c2ccnc(N[C@H](C)C3CCCCC3)n2)ccc1CNC(=O)c1cnc(C(C)(C)C)s1` [Example I-27, (R)-2-(tert-butyl)-N-(4-(2-((1-cyclohexylethyl)amino)pyrimidin-4-yl)-2-methylbenzyl)thiazole-5-carboxamide] was run?
A: The IC50 was over 10 µM.

Q: How did the IC50 turn out when `Cc1cc(-c2ccnc(N[C@@H](C)C3CCCCC3)n2)ccc1CNC(=O)c1cnc(C(C)(C)C)s1` [Example I-28, (S)-2-(tert-butyl)-N-(4-(2-((1-cyclohexylethyl)amino)pyrimidin-4-yl)-2-methylbenzyl)thiazole-5-carboxamide] was run?
A: Its IC50 is over 10 µM.

Q: Which IC50 does the source give for `Cc1cc(-c2ccnc(NC(C)c3ccncc3)n2)ccc1CNC(=O)c1cnc(C(C)(C)C)s1` (stereo not drawn) [Example I-29, 2-(tert-butyl)-N-(2-methyl-4-(2-((1-(pyridin-4-yl)ethyl)amino)pyrimidin-4-yl)benzyl)thiazole-5-carboxamide] here?
A: The IC50 was 1 to 10 µM.

Q: `Cc1cc(-c2ccnc(NC3CCS(=O)(=O)CC3)n2)ccc1CNC(=O)c1cnc(C(C)(C)C)s1` [Example I-30, 2-(tert-butyl)-N-(4-(2-((1,1-dioxidotetrahydro-2H-thiopyran-4-yl)amino)pyrimidin-4-yl)-2-methylbenzyl)thiazole-5-carboxamide] was tested. Which IC50 did it give?
A: The IC50 was 1 to 10 µM.

Q: For `Cc1cc(-c2ccnc(NCC3CCS(=O)(=O)CC3)n2)ccc1CNC(=O)c1cnc(C(C)(C)C)s1` [Example I-31, 2-(tert-butyl)-N-(4-(2-(((1,1-dioxidotetrahydro-2H-thiopyran-4-yl)methyl)amino)pyrimidin-4-yl)-2-methylbenzyl)thiazole-5-carboxamide], which IC50 is on record?
A: Its IC50 is 0.1 to 0.999 µM.

Q: Which IC50 does the source give for `Cc1cc(-c2ccnc(NCc3ccncc3)n2)ccc1CNC(=O)c1cnc(C(C)(C)C)s1` [Example I-32, 2-(tert-butyl)-N-(2-methyl-4-(2-((pyridin-4-ylmethyl)amino)pyrimidin-4-yl)benzyl)thiazole-5-carboxamide] here?
A: The IC50 was 0.1 to 0.999 µM.

Q: With `CNc1nccc(-c2ccc(CNC(=O)c3cnc(C(C)(C)C)s3)c(C)c2)n1` [Example I-33, 2-(tert-butyl)-N-(2-methyl-4-(2-(methylamino)pyrimidin-4-yl)benzyl)thiazole-5-carboxamide] as the molecule, how does the IC50 read?
A: Its IC50 is 0.1 to 0.999 µM.

Q: Which IC50 does the source give for `CCNc1nccc(-c2ccc(CNC(=O)c3cnc(C(C)(C)C)s3)c(C)c2)n1` [Example I-34, 2-(tert-butyl)-N-(4-(2-(ethylamino)pyrimidin-4-yl)-2-methylbenzyl)thiazole-5-carboxamide] here?
A: Its IC50 is 0.01 to 0.099 µM.

Q: `Cc1cc(-c2ccnc(NC(C)C)n2)ccc1CNC(=O)c1cnc(C(C)(C)C)s1` [Example I-35, 2-(tert-butyl)-N-(4-(2-(isopropylamino)pyrimidin-4-yl)-2-methylbenzyl)thiazole-5-carboxamide] was tested. Which IC50 did it give?
A: Its IC50 is 1 to 10 µM.

Q: For `Cc1cc(-c2ccnc(Nc3c(C)nn(C)c3C)n2)ccc1CNC(=O)c1cnc(C(C)(C)C)s1` [Example I-53, 2-(tert-butyl)-N-(2-methyl-4-(2-((1,3,5-trimethyl-1H-pyrazol-4-yl)amino)pyrimidin-4-yl)benzyl)thiazole-5-carboxamide], which IC50 is on record?
A: The IC50 was 0.1 to 0.999 µM.

Q: For `Cc1cc(-c2ccnc(Nc3conc3C)n2)ccc1CNC(=O)c1cnc(C(C)(C)C)s1` [Example I-57, 2-(tert-butyl)-N-(2-methyl-4-(2-((3-methylisoxazol-4-yl)amino)pyrimidin-4-yl)benzyl)thiazole-5-carboxamide], which IC50 is on record?
A: Its IC50 is under 0.01 µM.

Q: Which IC50 does the source give for `Cc1cc(-c2ccnc(Nc3cn(C)nn3)n2)ccc1CNC(=O)c1cnc(C(C)(C)C)s1` [Example I-58, 2-(tert-butyl)-N-(2-methyl-4-(2-((1-methyl-1H-1,2,3-triazol-4-yl)amino)pyrimidin-4-yl)benzyl)thiazole-5-carboxamide] here?
A: Its IC50 is 0.01 to 0.099 µM.

Q: For `Cc1nnc(Nc2nccc(-c3ccc(CNC(=O)c4cnc(C(C)(C)C)s4)c(C)c3)n2)s1` [Example I-59, 2-(tert-butyl)-N-(2-methyl-4-(2-((5-methyl-1,3,4-thiadiazol-2-yl)amino)pyrimidin-4-yl)benzyl)thiazole-5-carboxamide], which IC50 is on record?
A: Its IC50 is 0.01 to 0.099 µM.

Q: With `Cc1cc(-c2ccnc(Nc3ccccn3)n2)ccc1CNC(=O)c1cnc(C(C)(C)C)s1` [Example I-60, 2-(tert-butyl)-N-(2-methyl-4-(2-(pyridin-2-ylamino)pyrimidin-4-yl)benzyl)thiazole-5-carboxamide] as the molecule, how does the IC50 read?
A: The IC50 was 0.01 to 0.099 µM.

Q: With `Cc1cc(-c2ccnc(Nc3ccc(N(C)C)cn3)n2)ccc1CNC(=O)c1cnc(C(C)(C)C)s1` [Example I-61, 2-(tert-butyl)-N-(4-(2-((5-(dimethylamino)pyridin-2-yl)amino)pyrimidin-4-yl)-2-methylbenzyl)thiazole-5-carboxamide] as the molecule, how does the IC50 read?
A: Its IC50 is 0.01 to 0.099 µM.

Q: Which IC50 does the source give for `Cc1cc(-c2cc(Nc3nnn(C)n3)ncn2)ccc1CNC(=O)c1cnc(C(C)(C)C)s1` [Example I-68, 2-(tert-butyl)-N-(2-methyl-4-(6-((2-methyl-2H-tetrazol-5-yl)amino)pyrimidin-4-yl)benzyl)thiazole-5-carboxamide] here?
A: The IC50 was 0.01 to 0.099 µM.

Q: `Cc1cc(-c2ccnc(NC(=O)C3CCN(C)CC3)c2)ccc1CNC(=O)c1cnc(C(C)(C)C)s1` [Example I-71, 2-(tert-butyl)-N-(2-methyl-4-(2-(1-methylpiperidine-4-carboxamido)pyridin-4-yl)benzyl)thiazole-5-carboxamide] was tested. Which IC50 did it give?
A: Its IC50 is 0.01 to 0.099 µM.

Q: `Cc1cc(-c2ccnc(N)n2)ccc1CNC(=O)c1cc2n(n1)CCCNC2` [Example I-72, N-(4-(2-aminopyrimidin-4-yl)-2-methylbenzyl)-5,6,7,8-tetrahydro-4H-pyrazolo[1,5-a][1,4]diazepine-2-carboxamide] was tested. Which IC50 did it give?
A: The IC50 was 1 to 10 µM.

Q: Which IC50 does the source give for `Cc1cc(-c2ccnc(N)n2)ccc1CNC(=O)c1nc2c(s1)CCNCC2` [Example I-73, N-(4-(2-aminopyrimidin-4-yl)-2-methylbenzyl)-5,6,7,8-tetrahydro-4H-thiazolo[4,5-d]azepine-2-carboxamide] here?
A: The IC50 was 1 to 10 µM.

Q: `Cc1cc(-c2ccnc(N)n2)ccc1CNC(=O)c1cn2c(n1)CNCC2` [Example I-74, N-(4-(2-aminopyrimidin-4-yl)-2-methylbenzyl)-5,6,7,8-tetrahydroimidazo[1,2-a]pyrazine-2-carboxamide] was tested. Which IC50 did it give?
A: Its IC50 is 1 to 10 µM.

Q: `Cc1cc(-c2ccnc(N)n2)ccc1CNC(=O)c1nc2c(s1)CNCC2` [Example I-75, N-(4-(2-aminopyrimidin-4-yl)-2-methylbenzyl)-4,5,6,7-tetrahydrothiazolo[5,4-c]pyridine-2-carboxamide] was tested. Which IC50 did it give?
A: Its IC50 is 1 to 10 µM.

Q: `Cc1cc(-c2ccnc(N)n2)ccc1CNC(=O)c1cc2n(n1)CCNC2` [Example I-76, N-(4-(2-aminopyrimidin-4-yl)-2-methylbenzyl)-4,5,6,7-tetrahydro pyrazolo[1,5-a]pyrazine-2-carboxamide] was tested. Which IC50 did it give?
A: Its IC50 is over 10 µM.

Q: For `Cc1cc(-c2ccnc(N)n2)ccc1CNC(=O)c1ccc2c(c1)CCNC2` [Example I-77, N-(4-(2-aminopyrimidin-4-yl)-2-methylbenzyl)-1,2,3,4-tetrahydroisoquinoline-6-carboxamide], which IC50 is on record?
A: Its IC50 is 1 to 10 µM.

Q: How did the IC50 turn out when `Cc1cc(-c2ccnc(N)n2)ccc1CNC(=O)c1ccc2c(n1)CCNC2` [Example I-78, N-(4-(2-aminopyrimidin-4-yl)-2-methylbenzyl)-5,6,7,8-tetrahydro-1,6-naphthyridine-2-carboxamide] was run?
A: Its IC50 is over 10 µM.
